According to patent EP0385952A2, “Use of a naphthalenmethanamino derivative as antiinflammatory agent and pharmaceutical compositions containing it” (SANDOZ AG, priority 1989, dated 1990):
Read-outs that look alike come from different tables or passages of the source. Marks after values point to notes of the source that are not given here.

Columns and labels:
neutrophils = experiment: Neutrophil exocytosis assay (FMLP-stimulated enzyme release); type: cell-based
[1] = system: human cell line Mono-Mac-6; experiment: LPS-induced NAP1/IL-8, αTNF- and IL-1β-mRNA accumulation (RNA blotting); type: cell-based
Description: Human Mono-Mac-6 cells, which have many of the phenotypic and functional characteristics of mature peripheral blood monocytes [H. Ziegler et al, Int. J. Cancer 41 (1988) 456-461] are grown up to 10⁶ cells/ml im RPMI 1640 medium supplemented with 10 % FCS, 1 % pen/strep and 0.25 % amphotericin. In each of 6 activation experiments 10⁷ cells are incubated for 4 hours at 37°C and 5 % CO₂. LPS is used in a concentration of 1 µg/ml and the test substance in concentrations of 10⁻⁵ M to 10⁻⁷ M.
After induction times the cells are pelleted [5 min, 1200 rpm, room temperature]. Total cellular RNA is extracted from the pelleted cells using the guanidinium isothiocyanate/cesium chloride method of J.M. Chirgwin et al., Biochemistry 18 (1979) 5294-5299. 10 µg samples of the extracted RNA are size-fractionated by 1.2 % formaldehyde agarose gel electrophoresis [T. Maniatis et al., Molecular Cloning: A Laboratory Manual, Cold Spring Harbour, New York (1982) p. 187-206], transferred to synthetic membranes (Hybond N, Amersham) with 20xSSC (1xSSC is 150 mM NaCl, 15 mM sodium citrate, pH 7.0) overnight. The filters are baked for 2 hours at 65°C and prehybridized for 4 hours at 65°C in 5xSSC, 10x Denhardt's solution (1x Denhardt's solution is 0.02 % bovine serum albumin, 0.02 % polyvinyl pyrrolidone, 0.02 % ficoll), 10 % dextrane sulphate, 20 mM sodium phosphate pH 7.0, 7 % SDS, 100 µg/ml sonicated salmon sperm DNA, and 100 µg/ml polyA. ³²P-labelled synthetic NAP1/IL8, αTNF and IL-1β oligonucleotide probes are used as the hybridization probes. Hybridization is performed at 65°C in the pre-hybridization buffer containing the labelled probe for 16 hours. The blots are washed once in 5 % SDS, 3xSSC, 10x Denhardt's solution, 20 mM sodium phosphate pH 7.0 for 30 minutes at 65°C, and once in 1xSSC, 1 % SDS at 65°C for 30 minutes. Filters are exposed at -70°C to KODAK XAR-5 films using intensifying screens. After washing for 30 minutes in 0.1 % SDS at 65°C, blots are reused for a second hybridization with a β-actin specific oligonucleotide probe to quantitate the mRNA amounts.

mice = experiment: Croton oil-induced pinnal swelling in mice (irritant contact dermatitis, 2.1.2.); type: in vivo; conditions: simultaneous, topical, pinnal weight after 6 hours
Description: Skin irritation with arachidonic acid or cantharidin is often used to experimentally induce inflammation in order to evaluate the anti-inflammatory activity of a compound [see e.g. Inflammation 8 (1984) 134-135; 10 (1986) 205-214]. NMRI mice (8 animals per group) receive 10 µl of a 10 % solution of arachidonic acid [J.M. Young et al., J. Invest. Derm. 82 (1986) 367-371] in acetone or, respectively, 0.08 % cantharidin [K.E. Swingle et al., Arch. Int. Pharmacodyn. Ther. 254 (1981) 168-176] in acetone applied to the medial and lateral surface of the right external ear. Treatment is performed either prophylactically 30 minutes before irritation (arachidonic acid) or, respectively, either simultaneously with the application of irritant solution or therapeutically 20 minutes after irritation (cantharidin), by a single epicutaneous application of the test compound dissolved in a mixture of N,N-dimethylacetamide, acetone and alcohol (2:2:4). The evaluation of the test group is effected by comparison with a control group of animals having received on the right ear lobe only the carrier substance or the irritant solution. The animals are killed 1.5 hours (arachidonic acid) or, respectively, 17 hours (cantharidin) after application of the irritant and efficacy in assessed by determination of the differences in auricular weight. Differences in weights (D) of right (involved) and left (uninvolved) pinnae of animals treated with test compound and arachidonic acid or cantharidin (T-group) are compared with differences in mice treated with arachidonic acid only or cantharidin only (C-group). Efficacy (%) is calculated according to the equation: [formula]
This model is similar to the above (see 2.1.1.). Skin inflammation is induced with 15 µl of 0.23 % croton oil in a mixture of dimethylacetamide, acetone and ethanol (2:4:4), or with 10 µl of 0.005 % TPA [12-O-tetradecanoylphorbol-13-acetate; Sigma] prepared in acetone with 0.5 % dimethylsulfoxide. Topical treatment is performed either simultaneously with the irritation (croton oil) or 20 minutes after the application (TPA). The test compound is prepared in DAE. Efficacy is assessed 6 hours after onset of irritation by determination of the auricular weight as described above.

human keratinocytes = experiment: Inhibition of TPA-stimulated PGE₂ synthesis of human keratinocytes; type: cell-based; conditions: Keratinocyte, TPA 100 ng/ml, 24 hours, read-out: IC₅₀, inhibition of TPA-stimulated PGE₂ synthesis
Description: Cultures of human keratinocytes are obtained by trypsinisation of neonatal human foreskins. The keratinocyte cultures are grown in a supplemented keratinocyte growth medium (KGM; Clonetics) using culture flasks. Passages 3-5 of 80-90 % confluent keratinocytes are resuspended in KGM at a concentration of 1x10⁵ cells/ml and 0.1 ml are plated into 96 well-microtiter plates in the presence of test compound. For the stimulation of PGE₂ release human keratinocytes or the HACAT human skin keratinocyte cell line [P. Boukamp et al., J. Cell Biol. 106 (1988) 761-771] are grown to confluence in KGM medium and stimulated with TPA (100 ng/ml) for 24 hours. Conditioned media are centrifuged and concentrations of PGE₂ are determined using a ¹²⁵I radioimmunoassay (NEN, Boston, Mass.). Each sample is assayed in duplicate.

12 + 15-lipoxygenase = 12 + 15-lipoxygenase inhibition (neutrophil functions); type: cell-based; conditions: read-out: IC₅₀ for 12 + 15-lipoxygenase
[2] = system: Cyclooxygenase (prostaglandin synthetase); experiment: Cyclooxygenase inhibition; type: biochemical; conditions: at 100 µM
[3] = remaining level, 10.0 µM, LPS 1 µg/ml, 4 hours

## CN(C/C=C/c1ccc(O)cc1)Cc1cccc2ccccc12 [compound of the invention, (E)-N-methyl-N-[3-(4-hydroxyphenyl)-2-propenyl]-1-naphthalene-methanamine]
neutrophils; read-out: IC₅₀ for FMLP-stimulated release of azurophil granule enzymes
  IC50: > 100 µM
neutrophils; read-out: IC₅₀ for FMLP-stimulated release of lysosomal enzymes
  IC50: > 100 µM
neutrophils; read-out: IC₅₀ for FMLP-stimulated release of specific granule enzymes
  IC50: > 100 µM
[1]; mono-mac 6 cell line, summary statement
  concentration inhibiting lps-induced transcription of nap-1/il-8, αtnf and il-iβ: about 10 µm
[1]; [3]
  LPS-induced IL-1β-mRNA accumulation decreased to: 50%
  LPS-induced NAP1/IL-8-mRNA accumulation decreased to: 20%
  LPS-induced αTNF-mRNA accumulation decreased to: 10%
mice; test concentration 1.2 %
  Efficacy (%): 67** %
mice; test concentration 3.6 %
  Efficacy (%): 81** %
Human keratinocytes
  IC50: 1 to 3 µM
12 + 15-lipoxygenase
  IC50: 100 µM
[2]
  Cyclooxygenase (prostaglandin synthetase) inhibition: not inhibited
